Laboratory results: US20200247800A1, “SUBSTITUTED BICYCLIC HETEROCYCLIC COMPOUNDS AS NADPH OXIDASE INHIBITORS” (Glenmark Pharmaceuticals S.A., priority 2017, published 2020)

Target: T1, human NOX4 (Homo sapiens, UniProt Q9NPH5)
T1 construct: expressed in transfected cells; membrane fraction used
T1 sequence (Q9NPH5 1-578): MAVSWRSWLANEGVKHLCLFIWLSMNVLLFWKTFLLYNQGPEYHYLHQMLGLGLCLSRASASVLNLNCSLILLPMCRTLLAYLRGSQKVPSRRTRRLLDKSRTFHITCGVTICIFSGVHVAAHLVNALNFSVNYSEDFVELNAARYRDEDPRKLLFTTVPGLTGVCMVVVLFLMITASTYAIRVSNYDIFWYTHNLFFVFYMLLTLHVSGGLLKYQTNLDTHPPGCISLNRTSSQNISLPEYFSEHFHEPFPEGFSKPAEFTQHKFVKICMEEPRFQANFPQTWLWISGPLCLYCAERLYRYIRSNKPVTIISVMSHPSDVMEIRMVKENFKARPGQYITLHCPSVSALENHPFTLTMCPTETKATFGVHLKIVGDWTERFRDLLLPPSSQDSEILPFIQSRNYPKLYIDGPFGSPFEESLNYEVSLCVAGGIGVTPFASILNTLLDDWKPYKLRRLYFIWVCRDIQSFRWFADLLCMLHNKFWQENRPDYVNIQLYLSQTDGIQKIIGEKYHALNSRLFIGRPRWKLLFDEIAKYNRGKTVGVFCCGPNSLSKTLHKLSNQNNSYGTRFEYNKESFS
T1 sequence (P13498 1-195 partner): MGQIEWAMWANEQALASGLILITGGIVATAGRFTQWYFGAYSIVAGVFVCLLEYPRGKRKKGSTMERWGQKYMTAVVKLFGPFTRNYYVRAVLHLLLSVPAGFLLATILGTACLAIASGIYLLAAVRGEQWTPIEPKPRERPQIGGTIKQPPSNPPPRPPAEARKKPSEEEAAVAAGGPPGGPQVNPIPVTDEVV
Assay: Cell free membrane based in vitro NOX4 assay: H2O2 production by membranes expressing human NOX4, measured with Amplex Red
Assay type: biochemical
Conditions: for inhibition at 1 µM: 1.0 μM compound, read-out: Percentage inhibition at 1.0 μM; for inhibition at 10 µM: 10.0 μM compound, read-out: Percentage inhibition at 10.0 μM; for IC50: class symbols
Procedure, shortened: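 Membranes from HEK cells stably overexpressing human NOX4 were preincubated 20 min with inhibitor in pH 7.4 HEPES buffer containing HRP and Amplex Red, then NADPH was added. H2O2 was followed for 10 min by fluorescence (ex 544/em 590 nm). IC50 from nonlinear regression of % maximal uninhibited response.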

inhibition at 1 µM [%] | inhibition at 10 µM [%] | IC50 [nM] | Structure (SMILES)
73.1 | – | 100 to 150 | CCn1nc(C)c2c(=O)c(O)c(-c3ccccc3C(F)(F)F)[nH]c21 [Example 143, 1-Ethyl-5-hydroxy-3-methyl-6-(2-(trifluoromethyl)phenyl)-1H-pyrazolo[3,4-b]pyridin-4(7H)-one]
83.6 | 63.8 | 50 to 100 | Cc1nn(C2CCC2)c2[nH]c(-c3ccccc3Cl)c(O)c(=O)c12 [Example 144, 6-(2-Chlorophenyl)-1-cyclobutyl-5-hydroxy-3-methyl-1H-pyrazolo[3,4-b]pyridin-4(7H)-one]
90 | 93.2 | > 150 | Cn1nc(Cc2ccccc2Cl)c2c(=O)c(O)c(-c3ccccc3Cl)[nH]c21 [Example 145, 3-(2-Chlorobenzyl)-6-(2-chlorophenyl)-5-hydroxy-1-methyl-1H-pyrazolo[3,4-b]pyridin-4(7H)-one]
94 | 81.8 | 100 to 150 | CCc1nn(CCN2CCOCC2)c2[nH]c(-c3ccccc3Cl)c(O)c(=O)c12 [Example 146, 6-(2-Chlorophenyl)-3-ethyl-5-hydroxy-1-(2-morpholinoethyl)-1H-pyrazolo[3,4-b]pyridin-4(7H)-one]
94.3 | 64.9 | 100 to 150 | Cc1nn(CCCN2CCOCC2)c2[nH]c(-c3ccccc3Cl)c(O)c(=O)c12 [Example 147, 6-(2-Chlorophenyl)-5-hydroxy-3-methyl-1-(3-morpholinopropyl)-1H-pyrazolo[3,4-b]pyridin-4(7H)-one]
94.3 | 85.3 | > 150 | Cc1nn(CCN2C[C@@H](C)O[C@@H](C)C2)c2[nH]c(-c3ccccc3Cl)c(O)c(=O)c12 [Example 148, 6-(2-Chlorophenyl)-1-(2-((2S,6R)-2,6-dimethylmorpholino)ethyl)-5-hydroxy-3-methyl-1H-pyrazolo[3,4-b]pyridin-4(7H)-one]
79.1 | 74.7 | > 150 | Cc1nn(CCN2CCCCC2)c2[nH]c(-c3ccccc3Cl)c(O)c(=O)c12 [Example 149, 6-(2-Chlorophenyl)-5-hydroxy-3-methyl-1-(2-(piperidin-1-yl)ethyl)-1H-pyrazolo[3,4-b]pyridin-4(7H)-one]
67.1 | 84.4 | > 150 | O=c1c(O)c(-c2ccccc2Cl)[nH]c2c1c(C(F)(F)F)nn2CCN1CCOCC1 [Example 150, 6-(2-Chlorophenyl)-5-hydroxy-1-(2-morpholinoethyl)-3-(trifluoromethyl)-1H-pyrazolo[3,4-b]pyridin-4(7H)-one]
81.1 | 76.2 | > 150 | Cc1nn(CCN2CCCC2)c2[nH]c(-c3ccccc3Cl)c(O)c(=O)c12 [Example 151, 6-(2-Chlorophenyl)-5-hydroxy-3-methyl-1-(2-(pyrrolidin-1-yl)ethyl)-1H-pyrazolo[3,4-b]pyridin-4(7H)-one]
93.5 | 89.9 | 100 to 150 | Cc1nn(CCN2CCOCC2)c2[nH]c(-c3ccccc3C(F)(F)F)c(O)c(=O)c12 [Example 152, 5-Hydroxy-3-methyl-1-(2-morpholinoethyl)-6-(2-(trifluoromethyl)phenyl)-1H-pyrazolo[3,4-b]pyridin-4(7H)-one]
100 | 93 | > 150 | Cc1nn(CCN2CCOCC2)c2[nH]c(-c3cccc(C(F)(F)F)c3F)c(O)c(=O)c12 [Example 153, 6-(2-fluoro-3-(trifluoromethyl)phenyl)-5-hydroxy-3-methyl-1-(2-morpholinoethyl)-1H-pyrazolo[3,4-b]pyridin-4(7H)-one]
99.6 | 100 | > 150 | CN(C)CCn1nc(C(F)(F)F)c2c(=O)c(O)c(-c3ccccc3Cl)[nH]c21 [Example 154, 6-(2-chlorophenyl)-1-(2-(dimethylamino)ethyl)-5-hydroxy-3-(trifluoromethyl)-1H-pyrazolo[3,4-b]pyridin-4(7H)-one]

Second part, the molecule before the results:

Structure (SMILES) | inhibition at 1 µM [%] | inhibition at 10 µM [%] | IC50 [nM]
O=c1c(O)c(-c2c(F)cccc2F)[nH]c2c1c(C(F)(F)F)nn2C1CCOCC1 [Example 134, 6-(2,6-Difluorophenyl)-5-hydroxy-1-(tetrahydro-2H-pyran-4-yl)-3-(trifluoromethyl)-1,7-dihydro-4H-pyrazolo[3,4-b]pyridin-4-one] | 57.1 | 88.2 | > 150
Cn1nc(C(F)(F)F)c2c(=O)c(O)c(-c3cc(CNC(=O)C(C)(C)C)ccc3F)[nH]c21 [Example 135, N-(4-Fluoro-3-(5-hydroxy-1-methyl-4-oxo-3-(trifluoromethyl)-4,7-dihydro-1H-pyrazolo[3,4-b]pyridin-6-yl)benzyl)pivalamide] | 71 | 90.7 | > 150
Cc1nn(C2CCCCC2)c2[nH]c(-c3c(F)cccc3F)c(O)c(=O)c12 [Example 136, 1-Cyclohexyl-6-(2,6-difluorophenyl)-5-hydroxy-3-methyl-1,7-dihydro-4H-pyrazolo[3,4-b]pyridin-4-one] | 85 | 87.5 | < 50
Cc1nn(C2CCC(F)(F)CC2)c2[nH]c(-c3c(F)cccc3F)c(O)c(=O)c12 [Example 137, 1-(4,4-Difluorocyclohexyl)-6-(2,6-difluorophenyl)-5-hydroxy-3-methyl-1H-pyrazolo[3,4-b]pyridin-4(7H)-one] | 89.5 | 86.3 | 50 to 100
CCn1nc(C)c2c(=O)c(O)c(-c3cc(CNC(=O)C(C)(C)C)ccc3F)[nH]c21 [Example 138, N-(3-(1-Ethyl-5-hydroxy-3-methyl-4-oxo-4,7-dihydro-1H-pyrazolo[3,4-b]pyridin-6-yl)-4-fluorobenzyl)pivalamide] | 92.6 | 85 | > 150
Cc1nn(-c2ccc(F)cc2Cl)c2[nH]c(-c3c(F)cccc3F)c(O)c(=O)c12 [Example 139, 1-(2-Chloro-4-fluorophenyl)-6-(2,6-difluorophenyl)-5-hydroxy-3-methyl-1H-pyrazolo[3,4-b]pyridin-4(7H)-one] | 99 | 100 | 50 to 100
CCc1nn(C2CC2)c2[nH]c(-c3c(F)cccc3F)c(O)c(=O)c12 [Example 140, 1-Cyclopropyl-6-(2,6-difluorophenyl)-3-ethyl-5-hydroxy-1H-pyrazolo[3,4-b]pyridin-4(7H)-one] | 100 | 100 | 50 to 100
Cc1nn(-c2ccc(F)cc2Cl)c2[nH]c(-c3ccccc3Cl)c(O)c(=O)c12 [Example 141, 1-(2-Chloro-4-fluorophenyl)-6-(2-chlorophenyl)-5-hydroxy-3-methyl-1H-pyrazolo[3,4-b]pyridin-4(7H)-one] | 77.9 | 95.1 | > 150
Cc1nn(C2CCOCC2)c2[nH]c(-c3cc(CNC(=O)C(C)(C)C)ccc3Cl)c(O)c(=O)c12 [Example 142, N-(4-Chloro-3-(5-hydroxy-3-methyl-4-oxo-1-(tetrahydro-2H-pyran-4-yl)-4,7-dihydro-1H-pyrazolo[3,4-b]pyridin-6-yl)benzyl)pivalamide] | 80.4 | 69.9 | > 150
